Assay results reported in PubChem BioAssay AID1963875 (Molecular Pharmacology Branch, DTP, NCI, 2024).

Test system: KRAS-mutant PDC complex spheroid viability
Assay: Anticancer human tumor 186277-243-T-J2-PDC patient-derived colon adenocarcinoma cell line growth inhibition [KRAS2]
Settings: for IC50: curve of first compound; for viability, T/C: stronger effect = lower value
Text: Multicellular complex tumor spheroid response to RAS pathway inhibitors in combination with a targeted agents in patient-derived cell lines with oncogenic KRAS variants from multiple cancer types
A high-throughput screen of multi-cell type tumor spheroids was designed to identify active combinations of targeted small molecules and KRAS pathway inhibitors. Complex spheroids include a stromal component modeled by human endothelial cells (HUVEC) and fibroblasts modeled by human mesenchymal stem cells (MSCs). The concentration ranges selected for each drug and investigational agent were based upon clinically achievable concentrations if the clinical Cmax of the agent was known.
Compounds. The drugs and investigational agents: BI-3406 (NSC825286), BAY-293 (NSC824723), batoprotafib (TNO155; NSC825523), sotorasib (AMG 510; NSC818433), MRTX1257 (NSC819558), elimusertib (BAY 1895344; NSC800525), molibresib (GSK525762; NSC774829), temuterkib (LY3214996; NSC803410), venetoclax (NSC766270), alisertib (NSC759677), olaparib (NSC753686), talazoparib (NSC767125), erdafitinib (NSC781556), ipatasertib (NSC767898), cabozantinib (NSC761068), nintedanib (NSC756659), abemaciclib (NSC768073), docetaxel (NSC628503), trametinib (NSC758246), and sapanisertib (NSC764658) were obtained from the National Cancer Institute (NCI) Developmental Therapeutics Program Chemical Repository. The FDA-approved anticancer drug set is available from the Developmental Therapeutics Program. […] The stock solutions were prepared in dimethyl sulfoxide (DMSO, Sigma-Aldrich, St. Louis, MO, cat. D2650) at 800-fold the tested concentration and stored at -70 degrees C prior to their use. All drugs and investigational agents were tested over a range starting from a high concentration at or near the clinical Cmax and decreasing in half-log increments. If the clinical Cmax for an agent had not been determined, the highest concentration tested was 10 microM.
Cell Culture. All cells were maintained in an incubator at 37 degrees C and 5% CO2 with 95% humidity. The PDC lines were cultured according to standard operating procedures established by the NCI PDMR (https://pdmr.cancer.gov/sops/default.htm). Briefly, all PDCs were thawed and cultured in Matrigel-coated flasks prepared with a working solution of 1X Ham's F-12 nutrient mix, without supplementation (Invitrogen, Waltham, MA, cat. 11765054), 100 U/mL penicillin-streptomycin (Invitrogen, cat. 15140122), and 2.5% Matrigel (Corning Inc., Corning, NY, cat. 354248) for the first three passages. All PDCs were cultured in complete DMEM/F-12 media containing advanced DMEM/F-12 (Invitrogen, cat. 12634028), 4.9% defined fetal bovine serum, heat inactivated (HyClone Laboratories Inc., Logan, UT, cat. SH30070.03HI), 389 ng/mL hydrocortisone (Sigma-Aldrich, cat. H4001), 9.7 ng/mL human EGF recombinant protein (Invitrogen, cat. PHG0313), 23.4 microg/mL adenine (Sigma-Aldrich, cat. A2786), 97.3 U/mL penicillin-streptomycin (Invitrogen, cat. 15140122), 1.9 mM L-glutamine (Invitrogen, cat. 25030081), and 9.7 microM Y-27632 dihydrochloride (Tocris Bioscience, Bristol, United Kingdom, cat. 1254). The PDCs were cultured in complete DMEM/F12 media without 9.7 microM Y-27632 dihydrochloride for at least two passages prior to the screen. The established cell line HOP-62 was cultured in RPMI 1640 medium, HEPES (Invitrogen, cat. 22400105) with 10% defined fetal bovine serum (HyClone Laboratories Inc., cat. SH30070.03) and 2 mM L-glutamine (Invitrogen, cat. 25030081). The pooled donor HUVEC were cultured in endothelial cell growth medium 2 (PromoCell, Heidelberg, Germany, cat. C-22011) and the hMSC were cultured in mesenchymal stem cell growth medium 2 (PromoCell, cat. C-28009). For all experiments, HUVEC and hMSC were used at passages </=5, while the malignant cell lines were used at passages </=15. […]

[1] = second compound 0.1 µM, first compound 0.0316 µM
[2] = second compound 0.1 µM, first compound 0.1 µM
[3] = second compound 0.1 µM, first compound 0.316 µM
[4] = second compound 0.1 µM, first compound 1 µM
[5] = second compound 0.316 µM, first compound 0.0316 µM
[6] = second compound 0.316 µM, first compound 0.1 µM
[7] = second compound 0.316 µM, first compound 0.316 µM
[8] = second compound 0.316 µM, first compound 1 µM
[9] = second compound 1 µM, first compound 0.0316 µM
[10] = second compound 1 µM, first compound 0.1 µM
[11] = second compound 1 µM, first compound 0.316 µM
[12] = second compound 1 µM, first compound 1 µM
[13] = second compound 3.16 µM, first compound 0.0316 µM
[14] = second compound 3.16 µM, first compound 0.1 µM
[15] = second compound 3.16 µM, first compound 0.316 µM
[16] = second compound 3.16 µM, first compound 1 µM
[17] = second compound 10 µM, first compound 0.0316 µM
[18] = second compound 10 µM, first compound 0.1 µM
[19] = second compound 10 µM, first compound 0.316 µM
[20] = second compound 10 µM, first compound 1 µM
[21] = second compound 0.1 µM, first compound 0.00316 µM
[22] = second compound 0.1 µM, first compound 0.01 µM
[23] = second compound 0.316 µM, first compound 0.00316 µM
[24] = second compound 0.316 µM, first compound 0.01 µM
[25] = second compound 1 µM, first compound 0.00316 µM
[26] = second compound 1 µM, first compound 0.01 µM
[27] = second compound 3.16 µM, first compound 0.01 µM
[28] = second compound 10 µM, first compound 0.00316 µM
[29] = second compound 10 µM, first compound 0.01 µM
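For viability, T/C in this document: viability read after seven days of compound exposure; 100% = DMSO vehicle-treated spheroids so lower means less viable.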

Compound	IC50 (second compound 0.1 µM)	IC50 (second compound 0.316 µM)	IC50 (second compound 1 µM)	IC50 (second compound 3.16 µM)	IC50 (second compound 10 µM)	viability, T/C [1]	viability, T/C [2]	viability, T/C [3]	viability, T/C [4]	viability, T/C [5]	viability, T/C [6]	viability, T/C [7]	viability, T/C [8]	viability, T/C [9]	viability, T/C [10]	viability, T/C [11]	viability, T/C [12]	viability, T/C [13]	viability, T/C [14]	viability, T/C [17]	also measured
CC(C)NCC(C(=O)N1CCN(c2ncnc3c2C(C)CC3O)CC1)c1ccc(Cl)cc1 (stereo not drawn) + C=CC(=O)N1CCN(c2nc(=O)n(-c3c(C)ccnc3C(C)C)c3nc(-c4c(O)cccc4F)c(F)cc23)C(C)C1	615 nM	650 nM	636 nM	271 nM	51.3 nM	102%	99.5%	63.7%	37.5%	106%	93.6%	63.2%	41.1%	109%	103%	66.5%	36.7%	100%	85.1%	70.3%	viability, T/C (second compound 0.1 µM, first compound 3.16 µM): 27.9%; viability, T/C (second compound 0.1 µM, first compound 10 µM): 13.4%; viability, T/C (second compound 0.316 µM, first compound 3.16 µM): 23.9%; viability, T/C (second compound 0.316 µM, first compound 10 µM): 11.8%; viability, T/C (second compound 1 µM, first compound 3.16 µM): 26.3%; viability, T/C (second compound 1 µM, first compound 10 µM): 10.6%; viability, T/C [15]: 40.9%; viability, T/C [16]: 25.7%; viability, T/C (second compound 3.16 µM, first compound 3.16 µM): 14.3%; viability, T/C (second compound 3.16 µM, first compound 10 µM): 8.27%; viability, T/C [18]: 20.1%; viability, T/C [19]: 15.9%; viability, T/C [20]: 8.02%; viability, T/C (second compound 10 µM, first compound 3.16 µM): 6.56%; viability, T/C (second compound 10 µM, first compound 10 µM): 2.87%
CCN1CCN(Cc2ccc(Nc3ncc(F)c(-c4cc(F)c5nc(C)n(C(C)C)c5c4)n3)nc2)CC1 + C=CC(=O)N1CCN(c2nc(=O)n(-c3c(C)ccnc3C(C)C)c3nc(-c4c(O)cccc4F)c(F)cc23)C(C)C1	> 1000 nM	> 1000 nM	> 1000 nM	> 1000 nM	571 nM	98.4%	129%	158%	96.6%	103%	117%	157%	105%	99.7%	113%	153%	99.7%	108%	139%	83.3%	viability, T/C [21]: 107%; viability, T/C [22]: 95%; viability, T/C [23]: 104%; viability, T/C [24]: 101%; viability, T/C [25]: 109%; viability, T/C [26]: 103%; viability, T/C (second compound 3.16 µM, first compound 0.00316 µM): 92.2%; viability, T/C [27]: 102%; viability, T/C [15]: 175%; viability, T/C [16]: 73%; viability, T/C [28]: 69.1%; viability, T/C [29]: 64.8%; viability, T/C [19]: 74.1%; viability, T/C [20]: 27.5%
Cn1ncnc1[C@H]1c2n[nH]c(=O)c3cc(F)cc(c23)N[C@@H]1c1ccc(F)cc1 + C=CC(=O)N1CCN(c2nc(=O)n(-c3c(C)ccnc3C(C)C)c3nc(-c4c(O)cccc4F)c(F)cc23)C(C)C1	> 100 nM	> 100 nM	> 100 nM	> 100 nM	3.32 nM	95%	75.8%	–	–	87.8%	79%	–	–	85.2%	67.2%	–	–	61.6%	50.6%	32.9%	viability, T/C (second compound 0.1 µM, first compound 0.000316 µM): 98.5%; viability, T/C (second compound 0.1 µM, first compound 0.001 µM): 97.1%; viability, T/C [21]: 111%; viability, T/C [22]: 105%; viability, T/C (second compound 0.316 µM, first compound 0.000316 µM): 106%; viability, T/C (second compound 0.316 µM, first compound 0.001 µM): 114%; viability, T/C [23]: 105%; viability, T/C [24]: 103%; viability, T/C (second compound 1 µM, first compound 0.000316 µM): 106%; viability, T/C (second compound 1 µM, first compound 0.001 µM): 105%; viability, T/C [25]: 108%; viability, T/C [26]: 98.7%; viability, T/C (second compound 3.16 µM, first compound 0.000316 µM): 99.6%; viability, T/C (second compound 3.16 µM, first compound 0.001 µM): 101%; viability, T/C [27]: 76.5%; viability, T/C (second compound 10 µM, first compound 0.000316 µM): 45%; viability, T/C (second compound 10 µM, first compound 0.001 µM): 60.2%; viability, T/C [28]: 51%; viability, T/C [29]: 28.3%; viability, T/C [18]: 24.1%
